We go through 21 compounds from ChEMBL document CHEMBL1649419, “Design and synthesis of pyrimidinone and pyrimidinedione inhibitors of dipeptidyl peptidase IV” (J Med Chem, 2011).

Data set [1] is described as follows: Half life in rat liver microsomes by LC/MS analysis. The class given is ADME, Microsome.
The nature of data set [2]: Half life in human liver microsomes by LC/MS analysis. The class given is ADME, Microsome.
Data set [3] in a line: Half life in monkey at 1.1 mg/kg, iv. The format is ADME, organism-based, Macaca mulatta. Particulars: rhesus monkey, in vivo. Also on record: dose 1.1 mg/kg, route intravenous.
A short description of data set [4]: Half life in monkey at 7.6 mg/kg, po. The format is ADME, organism-based, Macaca mulatta. Also on record: dose 7.6 mg/kg, route oral. The following applies: rhesus monkey, in vivo.
Data set [5] is described as follows: AUC in monkey at 7.6 mg/kg, po. The class given is ADME, organism-based, Macaca mulatta. Details: dose 7.6 mg/kg, route oral. Particulars: rhesus monkey, plasma.
Data set [6] in a line: Volume of distribution at steady state in monkey at 1.1 mg/kg, iv and 7.6 mg/kg, po. The format is ADME, organism-based, Macaca mulatta. The following applies: rhesus monkey, in vivo, read-out: Vdss.
Data set [7] is described as follows: Oral bioavailability in monkey at 7.6 mg/kg. The following applies: rhesus monkey, in vivo. The format is ADME, organism-based, Macaca mulatta.

For `N#Cc1ccccc1Cn1c(N2CCC[C@@H](N)C2)ncc(Br)c1=O`, the half-life in data set [1] is 94 min; in data set [2], above 200 min; in data set [3], 252 min; in data set [4] it was 324 min. Moreover, the AUC in data set [5] was 8200 ng·h/mL. In addition, the Vd in data set [6] came to 4.2 L/kg. The bioavailability in data set [7] is 112%.

As to `N#Cc1ccccc1Cn1c(N2CCC[C@@H](N)C2)nccc1=O`, the half-life in data set [1] is 131 min; in data set [2] it was above 200 min.

Take `N#Cc1ccccc1Cn1c(N2CCC[C@@H](N)C2)ncc(F)c1=O`: the half-life in data set [1] and in data set [2] was above 200 min in each case.

On to `N#Cc1ccccc1Cn1c(N2CCC[C@@H](N)C2)ncc(Cl)c1=O`, for which the half-life in data set [1] was 199 min; in data set [2], above 200 min.

With `Cc1nc(N2CCC[C@@H](N)C2)n(Cc2ccccc2C#N)c(=O)c1Br`, the values for the half-life in data set [1] and in data set [2] were 23 min and above 200 min, respectively.

With `N#Cc1ccccc1Cn1c(N2CCC[C@@H](N)C2)ncc(I)c1=O`, the half-life was 59 min in data set [1] and 161 min in data set [2].

As to `Cc1nc(N2CCC[C@@H](N)C2)n(Cc2ccccc2C#N)c(=O)c1C`, the half-life in data set [1] is 10 min; in data set [2], above 200 min.

For the compound `CCc1cnc(N2CCC[C@@H](N)C2)n(Cc2ccccc2C#N)c1=O`, the half-life in data set [1] is 7 min; in data set [2] it was above 200 min.

Take `COc1cnc(N2CCC[C@@H](N)C2)n(Cc2ccccc2C#N)c1=O`: the results for the half-life in data set [1] and in data set [2] were 20 min and above 200 min, respectively.

For the compound `N#Cc1ccccc1Cn1c(N2CCC[C@@H](N)C2)nc(-c2ccccc2)cc1=O`, the half-life was determined as 12 min in data set [1] and 119 min in data set [2].

For `N#Cc1ccccc1Cn1c(N2CCC[C@@H](N)C2)nc2c(c1=O)CCCC2`, the half-life in data set [1] was 6 min; in data set [2], 83 min.

In the case of `N#Cc1ccccc1Cn1c(N2CCC[C@@H](N)C2)ncc(-c2ccccc2)c1=O`, the half-life in data set [1] came out at 1 min; in data set [2], 70 min.

In the case of `N#Cc1ccccc1Cn1c(N2CCC[C@@H](N)C2)ncc(-c2ccoc2)c1=O`, the half-life in data set [1] was 4 min; in data set [2], 56 min.

Regarding `N#Cc1ccccc1Cn1c(N2CCC[C@@H](N)C2)ncc(-c2cc[nH]c2)c1=O`, the half-life in data set [1] is 71 min; in data set [2], 61 min.

On to `C#Cc1cnc(N2CCC[C@@H](N)C2)n(Cc2ccccc2C#N)c1=O`, for which the half-life in data set [1] and in data set [2] was above 200 min in each case.

In the case of `CC#Cc1cnc(N2CCC[C@@H](N)C2)n(Cc2ccccc2C#N)c1=O`, the half-life in data set [1] and in data set [2] was above 200 min each time.

In the case of `N#Cc1ccccc1Cn1c(N2CCC[C@@H](N)C2)ncc(C#CCO)c1=O`, the half-life in data set [1] and in data set [2] was above 200 min each time.

As for `C=Cc1cnc(N2CCC[C@@H](N)C2)n(Cc2ccccc2C#N)c1=O`, the half-life was 6 min in data set [1] and 164 min in data set [2].

In the case of `N#Cc1ccccc1Cn1c(N2CCC[C@@H](N)C2)ncc(/C=C/c2ccccc2)c1=O`, the half-life in data set [1] was 34 min; in data set [2], above 200 min.

Consider `N#Cc1ccccc1Cn1c(N2CCC[C@@H](N)C2)ncc(/C=C/c2ccc(F)cc2)c1=O`, for which the half-life was above 200 min in data set [1] and 186 min in data set [2].

Regarding `N#Cc1ccccc1Cn1c(N2CCC[C@@H](N)C2)ncc(/C=C/c2cccnc2)c1=O`, the half-life in data set [1] was 27 min; in data set [2], above 200 min.
